Data published in patent publication US7892350B2, “Sacrificial agents for fly ash concrete” (Boral Material Technologies Inc., priority 2003, dated 2011).

What was measured:
[1] = Adsorption/precipitation of SA or AEA in 10 wt % aqueous fly ash or cement slurries at pH 12.5; assay type: physicochemical; conditions: initial SA 3 mM
Description: Adsorption/Precipitation of Sacrificial Agents (SA) or Air Entrainment Agents (AEA) in 10 wt % Aqueous Fly Ash Slurries at pH 12.5:
(§1) The pH of the solutions were adjusted to 12.5 with NaOH.
Adsorption/Precipitation in FA or Cement Slurries: In this protocol, aqueous slurries containing 10 wt % FA or cement were prepared as described above, except that in this case, the cement was added directly into a solution of the SA or AEA in the following proportions: 3.0 g cement or FA, and 27 g of 3 mM sacrificial agent, or 27 g of 1050 mg/l AEA; the latter were prepared in the same way as in the precipitation test above. The residual (soluble) SA or AEA content in the solution was also determined by UV or COD.

[2] = Precipitation in slurry extract or leachate; assay type: physicochemical; conditions: pH 12.5, entries in parentheses
Description: as §1
Precipitation in slurry extract or leachate: To perform this test, FA or cement leachate were prepared in advance, by filtering two liters of a 10 wt % FA, or cement, slurry in 0.03N NaOH which had been left to stand under slow agitation for 30 min; 2.5 g of the filtrate solution was mixed with 22.5 g of the SA or AEA solution in a 50 ml polypropylene centrifuge tube; the latter was shaken vigorously in an orbital shaker (Eberbach Corporation) for 30 min at room temperature, centrifuged for 5 min and then the supernatant solution was filtered (0.45 μm). The SA or AEA content of the solution was determined using an Ultraviolet-Visible (UV) spectrometer or by COD (Chemical Oxygen Demand) measurement.
Entries in parentheses: % precipitation when reacted with solutions extracted from the fly ash slurries (Results in Table 5).

[3] = Paste air entrainment, Minimum air protocol; conditions: for Average of air entrained: over the fly ash:PCA pastes of Table 7
Description: (§2) Preparation of pastes: Pastes were prepared by pouring 400 g of cementitious powder in the 350-400 g of solution (water and additives) in a vessel (8.4 cm dia,×14.5 cm height) while gently stirring with a spatula; the exact quantity of water depends on the selected W/B ratio (see below); rapid hand mixing was continued for 1 minute, followed by intense stirring at 25° C. during 2 min using a hand-held mixer (BRAUN model MR400). The level of air entrained is dependent on the mode of utilisation of the mixer, namely the height of the mixer from the bottom of the vessel and the length of the mixing stroke; the following protocols were adopted.
Minimum air protocol: The BRAUN mixer is positioned at 1.0 inch from the bottom of the mixing vessel and the up-down motion of the mixer is limited to a 1.0 inch displacement; this provided ‘minimum air’ entrained air levels and is later referred to as ‘Minimum air protocol’ (Results reported in Table 6, col. 1 and Table 7).
(§3) Fluidity measurements: For all air entrainment measurements, the initial fluidity of the paste (without additives) was controlled using the ‘mini-slump’ procedure widely used for paste and grouts. In this protocol, a portion of the paste was transferred into the min-slump cone (a 2¼″ high, 1½″ bottom diameter, ¾″ top diameter cone); excess paste was skimmed-off with a straight; the cone was then raised and the spread diameter of the paste was recorded (average of two measurements). The fluidity is measured at 10 minutes after mixing. The paste is returned to the batch and reserved for subsequent AE measurements. The fluidity of the paste (without SA and AEA) is adjusted by changing the amount of water (water/cementitious ratio) which yields a spread diameter of 115±5 mm. The latter is monitored regularly.
(§4) Air entrainment measurements: For air entrainment measurements, a portion of the paste was transferred to overfill a Plexiglas cylinder (3¾ inches height, 2 inches interior diameter), which was then levelled flush to the top of the cylinder with a straight edge. The mass of the filled cylinder, minus the weight of the empty cylinder, is then recorded and used to calculate the amount of air according to the following formula: […]
(§5) This procedure was carried out at three times at 30 min. intervals (6, 36 and 66 min); the paste was let to stand at rest between measurements, and was stirred gently by hand for one minute prior to the subsequent air entrainment measurements.
Typical mixture compositions for air entrainment measurements in pastes containing a single additive using ‘Minimum air protocol’ (results shown in Table 6, col. 1): […]

[4] = Paste air entrainment, Maximum air protocol; conditions: for Air entrained at 66 min: Air 30 (0.0125 wt %)/X/ButOH=1/4/4, X = the labelled sulfonated SA; for Air entrained: PCA cement paste, 0.0125% SA or AEA alone, Maximum air protocol
Description: as §2, §3, §4, §5
Other combinations of air entrainment agents and sacrificial agents were prepared as stock solutions following the procedure outlined above, adjusting the weights of the various components to achieve the desired component ratios.

[5] = 10 wt % fly ash B1 (LOI 4.36%) slurry, Air 30/Air 40 0.105 wt %
[6] = 10 wt % fly ash C1, class C (LOI 1.62%) slurry, Air 30/Air 40 0.105 wt %
[7] = 10 wt % fly ash C2 (LOI 3.32%) slurry
[8] = 10 wt % fly ash M1 (LOI […]) slurry, Air 30/Air 40 0.105 wt %
[9] = 10 wt % fly ash M2 (LOI 5.34%) slurry, Air 30/Air 40 0.105 wt %
[10] = 10 wt % fly ash M3 (LOI 11.33%) slurry, Air 30/Air 40 0.105 wt %
[11] = 10 wt % fly ash N (LOI 0.30%) slurry
[12] = solution extracted from 10 wt % fly ash B1 (LOI 4.36%) slurry
[13] = solution extracted from 10 wt % fly ash C1, class C (LOI 1.62%) slurry
[14] = solution extracted from 10 wt % fly ash C2 (LOI 3.32%) slurry
[15] = solution extracted from 10 wt % fly ash M1 (LOI […]) slurry
[16] = solution extracted from 10 wt % fly ash M2 (LOI 5.34%) slurry
[17] = solution extracted from 10 wt % fly ash M3 (LOI 11.33%) slurry
[18] = solution extracted from 10 wt % fly ash N (LOI 0.30%) slurry
[19] = 50:50 fly ash B1 (LOI 4.36%):PCA paste, 0.1 wt % Air 30 alone or with 0.05 wt % of the SA
[20] = 50:50 fly ash C1 (LOI 1.62%):PCA paste, 0.1 wt % Air 30 alone or with 0.05 wt % of the SA
[21] = 50:50 fly ash D (LOI […]):PCA paste, 0.1 wt % Air 30 alone or with 0.05 wt % of the SA
[22] = 50:50 fly ash M1 (LOI […]):PCA paste, 0.1 wt % Air 30 alone or with 0.05 wt % of the SA
[23] = 50:50 fly ash M2 (LOI 5.34%):PCA paste, 0.1 wt % Air 30 alone or with 0.05 wt % of the SA
[24] = 50:50 fly ash M3 (LOI 11.33%):PCA paste, 0.1 wt % Air 30 alone or with 0.05 wt % of the SA
[25] = 50:50 fly ash R (LOI […]):PCA paste, 0.1 wt % Air 30 alone or with 0.05 wt % of the SA
[26] = PCA cement paste, 0.1% SA or AEA alone, Minimum air protocol
[27] = 0.1 wt % Air 30 alone or with 0.05 wt % of the SA
[28] = 50:50 fly ash B1 (LOI 4.36%):PCA paste
[29] = 50:50 fly ash D (LOI […]):PCA paste
[30] = 50:50 fly ash M2 (LOI 5.34%):PCA paste

| Molecule | Adsorption (wt % Adsorbed) [1, 5] | Adsorption (wt % Adsorbed) [1, 6] | Adsorption (wt % Adsorbed) [1, 7] | Adsorption (wt % Adsorbed) [1, 8] | Adsorption (wt % Adsorbed) [1, 9] | Adsorption (wt % Adsorbed) [1, 10] | Adsorption (wt % Adsorbed) [1, 11] | Precipitation (wt % precipitated) [2, 12] | Precipitation (wt % precipitated) [2, 13] | Precipitation (wt % precipitated) [2, 14] | Precipitation (wt % precipitated) [2, 15] | Precipitation (wt % precipitated) [2, 16] | Precipitation (wt % precipitated) [2, 17] | Precipitation (wt % precipitated) [2, 18] | Air entrained [3, 19] | Air entrained [3, 20] | Air entrained [3, 21] | Air entrained [3, 22] | Air entrained [3, 23] | Air entrained [3, 24] | also measured |
| --- | --- | --- | --- | --- | --- | --- | --- | --- | --- | --- | --- | --- | --- | --- | --- | --- | --- | --- | --- | --- | --- |
| Sodium Di-isopropopyl naphthalene sulfonate [ND] | 14 wt % | 84 wt % | 17 wt % | 27 wt % | 13 wt % | 18 wt % | 26 wt % | 0 wt % | 31 wt % | 0 wt % | 0 wt % | 0 wt % | 0 wt % | 0 wt % | 4 vol % | 4 vol % | 3 vol % | 5 vol % | 4 vol % | 4 vol % | Air entrained [3, 25]: 3 vol %; Air entrained [3, 26]: 3 vol %; Average of air entrained [3, 27]: 4%; Air entrained at 66 min [4, 28]: 17 vol %; Air entrained at 66 min [4, 29]: 24 vol %; Air entrained at 66 min [4, 30]: 11 vol %; Air entrained [4]: 7 vol %; Air entrained at 66 min ([4]; PCA paste, no fly ash): 23 vol %; air entrained (average) ([4]; fly ash:cement pastes, SA added at four (4) times the fixed Air 30 dosage (0.0125%)): 14% |
| O=S(=O)([O-])c1ccc2ccccc2c1.[Na+] [NS, Sodium 2-Naphthalene sulfonate] | 8 wt % | 70 wt % | 5 wt % | 11 wt % | 8 wt % | 10 wt % | 5 wt % | 0 wt % | 10 wt % | 0 wt % | 0 wt % | 0 wt % | 0 wt % | 0 wt % | 4 vol % | 12 vol % | 6 vol % | 4 vol % | 3 vol % | 4 vol % | Adsorption (wt % Adsorbed) ([1]; 10 wt % PCA cement slurry, Air 30/Air 40 0.105 wt %): 3 wt %; Adsorption (wt % Adsorbed) ([1]; 10 wt % fly ash D, class C (LOI […]) slurry, Air 30/Air 40 0.105 wt %): 59 wt %; Adsorption (wt % Adsorbed) ([1]; 10 wt % fly ash R (LOI […]) slurry, Air 30/Air 40 0.105 wt %): 24 wt %; Precipitation (wt % precipitated) ([2]; solution extracted from 10 wt % PCA cement slurry): 1 wt %; Precipitation (wt % precipitated) ([2]; solution extracted from 10 wt % fly ash D, class C (LOI […]) slurry): 1 wt %; Precipitation (wt % precipitated) ([2]; solution extracted from 10 wt % fly ash R (LOI […]) slurry): 0 wt %; Air entrained [3, 25]: 6 vol %; Air entrained [3, 26]: 0 vol %; Average of air entrained [3, 27]: 5%; Air entrained at 66 min [4, 28]: 7 vol %; Air entrained at 66 min [4, 29]: 18 vol %; Air entrained at 66 min [4, 30]: 5 vol %; Air entrained [4]: 2 vol %; Air entrained at 66 min ([4]; PCA paste, no fly ash): 13 vol % |
